Legend:
[1] = system: HT-29 (colon) cancer cell line; experiment: MTT cell viability assay, HT-29; type: cell-based; conditions: Homo sapiens, HT-29, 48 h, read-out: Cell growth %; for activity at 10 µM: HT-29, 10 µM; for activity at 50 µM: HT-29, 50 µM
Protocol: (§1) Cell lines were purchased from the American Type Culture Collection (ATCC). Cell lines MDA-MB-231, HTB-54, DU-145, and BEAS-2B were cultured in RPMI 1640 medium (Gibco, Thermo Fisher Scientific, Gaithersburg, MD, USA) supplemented with 10% fetal bovine serum (FBS; Gibco), 100 units/mL penicillin, and […] streptomycin (Gibco). HT-29 cell line was grown in McCoy’s 5A (Gibco), 10% FBS, 100 units/mL penicillin, and 100 μg/mL streptomycin. Cells were maintained at 37 °C and 5% CO2. The culture medium was changed every three days.
(§2) The cell viability of each compound was measured by MTT colorimetric assay. Each compound was dissolved in DMSO at a concentration of 0.01 M. Each compound was tested at two different concentrations (10 and 50 µM) in MDA-MB-231 (breast), HTB-54 (lung), DU-145 (prostate), and HT-29 (colon) human cancer cell lines. Serial dilutions were prepared with supplemented culture medium. […] IC50 and selectivity indexes (SI) were determined.
(§3) Briefly, 1 × 10^4 tumor cells per well were grown in 96-well plates for 24 h. Then, these cells were incubated for 48 h with either DMSO (control) or a different concentration of each of the tested compounds. The cell viability was determined by adding 20 μL of MTT two hours and a half before the termination point. After this time, the culture medium was removed. The resulting formazan crystals were dissolved in 50 μL of DMSO, and the absorbance was measured at 570 nm. Results are expressed as % cell growth. The data were obtained from at least three independent experiments performed in quadruplicate.

[2] = DPPH radical scavenging assay; type: biochemical; conditions: for DPPH Inhibitory%: acylselenourea analogs
Protocol: Different methods are available to quantify the antioxidant capacity of natural or novel molecules. Notable among these are the ABTS^•+ and DPPH^• methods, which measure the quenching efficiency in vitro for known concentrations of preformed radicals. In this work, the DPPH^• colorimetric assay was carried out. Measurements were recorded on a BioTeck PowerWave XS spectrophotometer (BioTeck Instruments, Winooski, VT, USA) and data were collected using KCJunior v.1.41. software (BioTeck Instruments, Winooski, VT, USA). Compounds with potent activity were selected to further determine their protective effect against ROS-induced cell death caused by H2O2.
DPPH colorimetric assay was performed to determine the in vitro radical scavenging activity of the acylselenourea derivatives. DPPH assay was performed as described by Svinyarov. For each acylselenourea, a stock solution of 1 mg/mL in dimethyl sulfoxide (DMSO) was made, and these solutions were used to prepare the different concentrations employed in the assay. The compounds were tested at two different concentrations (0.003 and 0.03 mg/mL). Intermediate solutions were prepared in methanol and a volume of 100 µL of each was added to each well of the plate. Then, 100 µL of DPPH^• (previously prepared at a concentration of 0.04 mg/mL in methanol and preserved in the dark) was added to the previous methanolic acylselenourea solutions. The discoloration of the purple radical to the yellow reduced form was followed at 517 nm at different time points (0, 5, 15, 30, 60, 90, and 120 min). Ascorbic acid and trolox were used as positive controls. All measurements were carried out in triplicate. Results are expressed as the percentage of the radicals scavenged, calculated using the following formula: (1) % DPPH radical scavenging=Acontrol - Asample/Acontrol × 100 where Acontrol refers to the absorbance of the negative control and Asample refers to the absorbance of the tested compounds. Results are expressed as percentage of DPPH radical scavenging ± SD.

[3] = system: HTB-54 (lung) cancer cell line; experiment: MTT cell viability assay, HTB-54; type: cell-based, human; conditions: for activity at 10 µM: read-out: Cell growth %, HTB-54, 10 µM, 48 h, MTT; for activity at 50 µM: read-out: Cell growth %, HTB-54, 50 µM, 48 h, MTT
Protocol: as §1, §2, §3

[4] = system: MDA-MB-231 (breast) cancer cell line; experiment: MTT cell viability assay, MDA-MB-231; type: cell-based, human; conditions: Homo sapiens, MDA-MB-231, 48 h; for activity at 10 µM: read-out: Cell growth %, MDA-MB-231, 10 µM, 48 h, MTT; for activity at 50 µM: read-out: Cell growth %, MDA-MB-231, 50 µM, 48 h, MTT
Protocol: as §1, §2, §3

[5] = system: DU-145 (prostate) cancer cell line; experiment: MTT cell viability assay, DU-145; type: cell-based, human; conditions: for activity at 10 µM / activity at 50 µM: Homo sapiens, DU-145, 48 h; for activity at 10 µM: read-out: Cell growth %, DU-145, 10 µM, 48 h, MTT; for activity at 50 µM: read-out: Cell growth %, DU-145, 50 µM, 48 h, MTT
Protocol: as §1, §2, §3

[6] = system: MDA-MB-231, HT-29, HTB-54 and DU-145 cancer cell lines; experiment: MTT cell viability assay, statements over the panel of cancer cell lines; type: cell-based, human; conditions: 10 µM, over the four cancer cell lines
Protocol: as §1, §2, §3

[7] = system: non-malignant BEAS-2B lung cell line; experiment: MTT cell viability assay, BEAS-2B; type: cell-based; conditions: Homo sapiens, normal lung, 48 h
Protocol: as §1, §2, §3

SMILES	activity at 10 µM [1] [%]	activity at 50 µM [1] [%]	inhibition ([2]; 0.003 mg/mL, 0 min) [%]	inhibition ([2]; 0.003 mg/mL, 5 min) [%]	inhibition ([2]; 0.003 mg/mL, 15 min) [%]	inhibition ([2]; 0.003 mg/mL, 30 min) [%]	inhibition ([2]; 0.003 mg/mL, 60 min) [%]	inhibition ([2]; 0.003 mg/mL, 90 min) [%]	inhibition ([2]; 0.003 mg/mL, 120 min) [%]	inhibition ([2]; 0.03 mg/mL, 0 min) [%]	inhibition ([2]; 0.03 mg/mL, 5 min) [%]	inhibition ([2]; 0.03 mg/mL, 15 min) [%]	inhibition ([2]; 0.03 mg/mL, 30 min) [%]	inhibition ([2]; 0.03 mg/mL, 60 min) [%]	inhibition ([2]; 0.03 mg/mL, 120 min) [%]	activity at 10 µM ([3]; Homo sapiens, HTB-54, 48 h) [%]	activity at 50 µM ([3]; Homo sapiens, HTB-54, 48 h) [%]	activity at 10 µM [4] [%]	activity at 50 µM [4] [%]	activity at 10 µM [5] [%]	further results
C=CCNC(=[Se])NC(=O)c1ccco1 [Compound 1.II, N-(allylcarbamoselenoyl)furan-2-carboxamide]	95 ± 15.7	16.6 ± 5.3	1.7 ± 0.3	5.4 ± 0.5	8.8 ± 0.9	12.1 ± 1.2	16.5 ± 1.5	19.5 ± 1.7	21.1 ± 1.4	16 ± 1.9	45.2 ± 5.1	65.4 ± 4.1	85.4 ± 4.9	96.5 ± 0.6	96.5 ± 0.5	54.9 ± 11.2	11.1 ± 5.2	80.4 ± 8.4	14.5 ± 7.9	81.5 ± 13.5	time to reach the highest DPPH inhibition ([2]; 0.03 mg/mL): 60 min; DPPH Inhibitory% ([2]; 0.03 mg/mL, 90 min): 96.6 ± 0.6%; activity at 50 µM [5]: 10.6 ± 5.7%; cell growth % [6]: 54.8–95.0%
C#CCNC(=[Se])NC(=O)c1cccs1 [Compound 2.III, N-(prop-2-in-1-ylcarbamoselenoyl)thiophene-2-carboxamide]	43.4 ± 4.2	20.6 ± 4	2.4 ± 0.6	4.3 ± 0.4	5.4 ± 0.3	6.5 ± 0.5	7.1 ± 0.5	7.3 ± 0.6	7.3 ± 0.6	14.5 ± 2.3	12.8 ± 3	19.8 ± 2.8	24.8 ± 2.6	30.2 ± 2.9	34.4 ± 2.9	76.8 ± 6.8	44.7 ± 3.5	27.4 ± 5.4	9.48 ± 7.8	12.8 ± 2.8	IC50 [7]: 26.6 ± 4 µM; DPPH Inhibitory% ([2]; 0.03 mg/mL, 90 min): 33.0 ± 3.1%; IC50 ([3]; Homo sapiens, HTB-54, 48 h, read-out: IC50 HTB-54, Lung, MTT, 48 h): 11.6 ± 1.6 µM; SI ([3]; IC50 (BEAS-2B)/IC50 (HTB-54)): 2.3; activity at 50 µM [5]: 14.3 ± 6.7%
C=CCNC(=[Se])NC(=O)/C=C/c1ccccc1 [Compound 6.II, N-(allylcarbamoselenoyl)cinnamamide]	94.7 ± 5.3	56.1 ± 11	0	0	0	0	0	0.5 ± 2.3	1.1 ± 2.3	0	1 ± 1.7	4.6 ± 1.3	9.8 ± 1.1	18.8 ± 0.9	34.2 ± 0.7	68.7 ± 8.2	44.1 ± 10.6	51.8 ± 6.8	30.5 ± 7.1	57.3 ± 3.6	DPPH Inhibitory% ([2]; 0.03 mg/mL, 90 min): 26.7 ± 0.6%; cell growth % ([5]; DU-145, 10 µM, 48 h, MTT): 57.30%; activity at 50 µM [5]: 14.6 ± 4.5%
C=CCNC(=[Se])NC(=O)c1ccc2c(c1)OCO2 [Compound 8.II, N-(allylcarbamoselenoyl)benzo[d][1,3]dioxole-5-carboxamide]	83.5 ± 16.4	26.6 ± 3.8	1.2 ± 1.4	2.8 ± 1.3	5 ± 1.2	7.1 ± 1.1	9.7 ± 1.1	10.9 ± 1.2	11.7 ± 1.2	17.6 ± 4.6	39 ± 3	55.5 ± 2.1	68 ± 1.7	81.4 ± 1.3	93.7 ± 1.4	51.9 ± 15	20 ± 6.6	80.7 ± 6.4	15.5 ± 7.6	88.6 ± 10.1	DPPH Inhibitory% ([2]; 0.03 mg/mL, 90 min): 88.2 ± 1.3%; activity at 50 µM [5]: 10.3 ± 4.2%
C=CCNC(=O)c1cccc(C(=O)NC(=[Se])NCC=C)c1 [Compound 11.II, N^1-allyl-N^3-(allylcarbamoselenoyl)isophthalamide]	88.1 ± 4.8	30.8 ± 4	0	2.5 ± 1.4	5.8 ± 1.2	8.6 ± 0.9	11.6 ± 1	12.8 ± 0.8	13.5 ± 0.7	11 ± 3	38.5 ± 0.3	56.8 ± 0.6	70.1 ± 1	83 ± 1	94.3 ± 1.2	48.3 ± 6.9	5.94 ± 4.7	77.1 ± 10.1	14.7 ± 7.8	93.8 ± 8	inhibition ([2]; 0.03 mg/mL, 90 min): 89.6 ± 1.2%; activity at 50 µM [5]: 22 ± 5.8%

From article PMC10376326, “Novel Acylselenourea Derivatives: Dual Molecules with Anticancer and Radical Scavenging Activity” (Antioxidants, 2023)
